{"source": "patent EP0551200A1", "about": "“Protein phosphatase inhibitors for use in therapy” (priority 1992, dated 1993)", "key": {"mouse fibroblasts": {"tested_on": "mouse fibroblasts", "experiment": "Total cellular protein synthesis in mouse fibroblasts", "format": "cell-based", "settings": "data not shown", "description": "Quiescent human fibroblasts were stimulated with MEM containing 0.5 µM okadaic acid in the presence or absence of cycloheximide (10 µg/ml) for the times indicated in Fig. 11. […] Treatment of cells with cycloheximide enhanced the induction of Egr-1 mRNA by okadaic acid at 1.5 and 3 h (Fig. 11). Similarly puromycin, like cycloheximide, also \"superinduces\" the induction of the Egr-1 mRNA by okadaic acid (data not shown). […] However, in view that protein phosphatase 1 (PP1) and protein phosphatase 2A (PP2A) regulate enzymes associated with cellular protein synthesis (Cohen, Annu. Rev. Biochem. 58, 453-508, 1989) the effect of okadaic acid on protein synthesis in mouse and human fibroblasts was also measured. […] By then the Egr-1 mRNA message was already induced. A corollary to this is a comparison of the amount of ³⁵S-methionine labelled Egr-1 protein immunoprecipitated by R5232 antibodies from protein phosphatase inhibitor-treated and control cells. […] Thus, the induction of the Egr-1 gene by phosphatase inhibitors is unlikely to be mediated by their late inhibitory effects on cellular protein synthesis."}, "Egr-1 mRNA": {"tested_on": "Egr-1 mRNA", "experiment": "cells", "format": "cell-based, mouse", "description": "10 µg of RNA was applied to each lane and subjected to Northern blot analysis using an Egr-1 specific cDNA probe [1.6 kb Bgl II fragment (Sukhatme et al, Cell 53, 37-48, 1988)]. The same blots were rehybridized with actin or GADPH cDNA for normalizing the amount of RNA loaded. The blots were dried and autoradiographed. • (A). Time course of okadaic acid-induced Egr-1 and c-jun messages in primary human fibroblasts. Quiescent human fibroblasts were induced with 1 µM of okadaic acid for the time periods indicated. […] Time course of okadaic acid-induced Egr-1 message in Balb/c 3T3 cells. Quiescent Balb/c 3T3 cells were induced with okadaic acid (0.5µM) for the times indicated. • (C). Concentration dependent induction of Egr-1 message by okadaic acid in Balb/c 3T3 cells. Quiescent Balb/c 3T3 cells were induced with the indicated concentrations of okadaic acid for 1 h. As controls, different concentrations of DMSO were included. These corresponded to the amounts present in 0.25 µM okadaic acid (0.025% dimethyl sulphoxide (DMSO)) 0.5 µM okadaic acid (0.05% DMSO) and 1 µM okadaic acid (0.1%). • (D). Concentration dependent and time course induction of Egr-1 message by calyculin A. Quiescent Balb/c 3T3 cells were induced with different concentrations of calyculin A for 1 h. Northern analysis of this dose-dependent induction by calyculin A is shown on the left panel of the figure. […] Northern analysis of this time course induction by calyculin A is shown in the right panel of the figure. The same blot was rehybridized with pCMV-fos (Curran et al, Oncogene 2, 79-84, 1987) and pCMV-jun (Rauscher et al, 1988) shown in the middle panel. The blot was dried and autoradiographed.\nQuiescent primary human fibroblasts were incubated with okadaic acid (OA) or TPA for 1 or 3 h. The concentrations of OA and TPA were 0.5 µM and 120 ng/ml, respectively. The concentration of 1-(5-isoquinolinylsulfonyl)-2-methylpiperazine dihydrochloride (H7) and N-(2-guanidinoethyl)-5-isoquinolinesulphonamide dihydrochloride (HA1004) used was 25 µM. The cells were pre-treated for 15 min with H7 or HA1004 before they were induced by OA or TPA for 1 or 3 h. Cells were harvested, RNA was isolated and subjected to Northern blot analysis. The blot was probed with Egr-1 or GADPH cDNA. • (B). As a positive control, primary human fibroblasts were treated with TPA (30 ng/ml) for 1 h (1st lane). The fibroblasts were also pre-treated with H7 (25 µM) or HA1004 (25 µM) for 15 min before treatment with TPA for 1 h (2nd and 3rd lanes respectively). […] The blot was probed with Egr-1 or actin cDNA. • (C). Quiescent Balb/c 3T3 cells were incubated with OA, TPA or dBt-cAMP for 1 h or pre-treated with H7 (25 µM) or HA1004 (25 µM) for 15 min and then incubated with each of the agonists for 1 h. Cells were harvested, RNA was isolated and subjected to Northern blot analysis. The concentration of each agonist used was as follows: lane a: 0.5 µM of OA, lane b: 100 ng/ml of TPA, lane c: 1 mM of dBt-cAMP, lane d: H7 plus OA (0.5 µM), lane e: H7 plus TPA (100 ng/ml), lane f: H7 plus dBt-cAMP (1 mM), lane g: HA1004 plus OA (0.5 µM), lane h: HA1004 plus TPA (100 ng.ml), lane i: HA1004 plus dBt-cAMP (1mM). The blot was probed with Egr-1 or GADPH cDNA.\nCell Cultures and Reagents. Human diploid foreskin fibroblasts were a gift from Dr J Vilcek (New York University, New York). The cells were grown in MEM supplemented with 10% fetal bovine serum (Hyclone, Logan, UT, US), Mouse Balb/c 3T3 cells were purchased from the American Type Culture Collection and grown in Dulbecco's MEM (DMEM) supplemented with 10% fetal bovine serum. Okadaic acid, calyculin A, H7, and HA1004 were purchased from Biomol Research Laboratories (Plymouth Meeting, PA, US). TPA, puromycin and dBt-cAMP were purchased from Sigma (St Louis, MO, US) 1 mM stock solutions of okadaic acid or calyculin A were solubilized in DMSO. [³²P]orthophosphate and other radioactive chemicals were purchased from Du Pont-New England Nuclear (Boston, MA). […]"}}, "data": [{"smiles": "C=C1[C@@H](O)[C@@H]2O[C@]3(CC[C@H](/C=C/[C@@H](C)[C@@H]4CC(C)=C[C@@]5(O[C@H](C[C@@](C)(O)C(=O)O)CC[C@H]5O)O4)O3)CC[C@H]2O[C@@H]1[C@@H](O)C[C@H](C)[C@H]1O[C@@]2(CCCCO2)CC[C@H]1C", "note": "[okadaic acid]", "values": [{"measurement": "effect on total cellular protein synthesis (in words)", "setting": "mouse fibroblasts; 0.5 µM, first 2 h", "value": "little measurable effect"}, {"measurement": "inhibition at 0.5 µM", "setting": "mouse fibroblasts; Mus musculus, Fibroblast, at 4 h", "value": "≤ 50", "unit": "%"}, {"measurement": "time for which the Egr-1 mRNA level is maintained", "setting": "Egr-1 mRNA; 0.5 µM", "value": "up to 7 h"}, {"measurement": "time of maximal induction of Egr-1 mRNA", "setting": "Egr-1 mRNA; 0.5 µM", "value": "about 2 h"}, {"measurement": "time to induction of Egr-1 mRNA", "setting": "Egr-1 mRNA; 0.5 µM", "value": "≤ 1", "unit": "h"}, {"measurement": "concentration inducing an equivalent fold increase in Egr-1 mRNA", "setting": "Egr-1 mRNA; 1 h, calyculin A compared with okadaic acid", "value": 1000, "unit": "nM"}, {"measurement": "fold induction at 0.5 µM", "setting": "Egr-1 mRNA; Mus musculus, BALB/c3T3, 0.5 µM, maintained level, read-out: Egr-1 mRNA level over control", "value": "30 to 40"}]}]}
